How the values were obtained:
hCB2 receptors = molecular target: T1, hCB2 receptors (Homo sapiens, UniProt P34972); experiment: [35S]GTPγS binding assay, CHO-hCB2 cell membranes; format: biochemical; details: for KB-value times less than Ki-value: CHO cell membranes, KB ([35S]GTPγS) versus Ki ([3H]CP55940 displacement)
T1 construct: expressed in transfected cells; host or cells: CHO cells
Experimental: (§1) Nonspecific binding was measured in the presence of 30 μM GTPγS.
The concentrations of [^35S]GTPγS and GDP present in the assay varied depending on whether the assay was conducted with mouse brain or transfected cell membranes. When the assay was conducted with mouse brain membranes, 0.1 nM [^35S]GTPγS and 30 μM GDP were present, whereas the corresponding concentrations present when the assay was conducted with transfected cell membranes were 1 nM and 320 μM respectively.
Additionally, mouse brain membranes were preincubated for 30 minutes at 30° C. with 0.5 U ml^−1 adenosine deaminase to remove endogenous adenosine. Agonists and antagonists were stored as a stock solution of 1 or 10 mM in DMSO, the vehicle concentration in all assay tubes being 0.11% DMSO.
Net agonist-stimulated [^35S]GTPγS binding values were calculated by subtracting basal binding values (obtained in the absence of agonist) from agonist-stimulated values (obtained in the presence of agonist) as detailed elsewhere (Ross et al., 1999a).
(§2) The apparent dissociation constant (KB) values for antagonism of agonists by THCV in the vas deferens or [^35S]GTPγS binding assay have been calculated by Schild analysis from the concentration ratio, defined as the concentration of an agonist that elicits a response of a particular size in the presence of a competitive reversible antagonist at a concentration, B, divided by the concentration of the same agonist that produces an identical response in the absence of the antagonist.
(§3) Mean values have been compared using Student's two-tailed t-test for unpaired data or one-way analysis of variance (ANOVA) followed by Dunnett's test (GraphPad Prism). A P-value <0.05 was considered to be significant.

[1] = clinical study, at least some of the patients; cited from earlier work
CB1 receptor [2] = molecular target: T2, CB1 receptor (Mus musculus, UniProt P47746); experiment: [35S]GTPγS binding assay, mouse brain membranes; format: biochemical
T2 construct: membranes prepared from healthy brain tissue, which is densely populated with CB1 but not CB2 receptors; from tissue; host or cells: mouse brain membranes
T2 sequence (P47746 whole entry): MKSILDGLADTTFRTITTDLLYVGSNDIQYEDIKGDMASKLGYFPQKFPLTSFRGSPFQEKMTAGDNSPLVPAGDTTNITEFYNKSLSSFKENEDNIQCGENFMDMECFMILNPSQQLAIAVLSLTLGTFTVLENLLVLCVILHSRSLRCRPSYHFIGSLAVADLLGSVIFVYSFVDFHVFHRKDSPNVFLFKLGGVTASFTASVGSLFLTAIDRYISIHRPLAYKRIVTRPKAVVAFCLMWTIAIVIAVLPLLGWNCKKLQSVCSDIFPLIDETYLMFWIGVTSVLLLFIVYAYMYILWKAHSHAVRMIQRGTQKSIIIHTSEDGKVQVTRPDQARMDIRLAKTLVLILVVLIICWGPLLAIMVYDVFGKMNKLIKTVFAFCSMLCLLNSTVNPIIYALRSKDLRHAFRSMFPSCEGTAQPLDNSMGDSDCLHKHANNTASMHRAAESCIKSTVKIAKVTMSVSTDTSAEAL
Experimental: as §1
The concentrations of [^35S]GTPγS and GDP present in the assay varied depending on whether the assay was conducted with mouse brain or transfected cell membranes.
Additionally, mouse brain membranes were preincubated for 30 minutes at 30° C. with 0.5 U ml^−1 adenosine deaminase to remove endogenous adenosine.
as §2, §3

vas deferens = experiment: Electrically-evoked twitch response of the vas deferens; details: at concentrations that antagonise cannabinoids
Excerpt: Inhibition of the electrically-evoked twitch response of the vas deferens has been expressed in percentage terms and this has been calculated by comparing the amplitude of the twitch response after each addition of a twitch inhibitor with its amplitude immediately before the first addition of the inhibitor. Contractile responses to phenylephrine and β,γ-methylene-ATP have been expressed as increases in tension (g).
as §2

CB1 receptor [3] = molecular target: T2, CB1 receptor; experiment: Radioligand displacement assay, mouse brain membranes; format: binding
Experimental: Binding was initiated by the addition of either the brain membranes (33 μg protein per tube) or the transfected hCB2 cells (25 μg protein per tube).
All assays were performed at 37° C. for 60 min before termination by addition of ice-cold wash buffer (50 mM Tris buffer, 1 mg ml^−1 bovine serum albumin, pH 7.4) and vacuum filtration using a 24-well sampling manifold and GF/B filters that had been soaked in wash buffer at 4° C. for at least 24 h.
Each reaction tube was washed six times with a 1.2 ml aliquot of wash buffer. The filters were oven-dried for 60 min and then placed in 5 ml of scintillation fluid. Radioactivity was quantified by liquid scintillation spectrometry.
Specific binding was defined as the difference between the binding that occurred in the presence and absence of 1 μM unlabelled CP55940.
Values are expressed as means and variability as s.e.mean or as 95% confidence limits.

T1 sequence (P34972 whole entry): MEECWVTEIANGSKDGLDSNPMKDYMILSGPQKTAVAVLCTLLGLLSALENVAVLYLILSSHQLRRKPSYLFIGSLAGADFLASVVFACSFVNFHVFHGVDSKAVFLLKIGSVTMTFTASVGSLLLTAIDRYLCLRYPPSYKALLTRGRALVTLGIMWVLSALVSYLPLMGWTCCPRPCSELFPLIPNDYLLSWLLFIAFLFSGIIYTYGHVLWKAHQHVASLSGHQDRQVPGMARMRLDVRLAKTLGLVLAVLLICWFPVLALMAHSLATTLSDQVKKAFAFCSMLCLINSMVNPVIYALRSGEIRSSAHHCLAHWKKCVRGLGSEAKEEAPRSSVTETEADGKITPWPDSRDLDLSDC

## SR144528 [reference compound]
hCB2 receptors
  KB-value times less than Ki-value: 15 times

## Cc1c(C(=O)NN2CCCCC2)nn(-c2ccc(Cl)cc2Cl)c1-c1ccc(Cl)cc1 [SR141716A]
[1]
  depression in patients enrolled in the trials: significant increase in depression

## C=C(C)[C@@H]1CCC(C)=C[C@H]1c1c(O)cc(CCCCC)cc1O [CBD, cannabidiol]
hCB2 receptors
  KB-value times less than Ki-value: 65 times
CB1 receptor [2]; 10 μM, both compounds, mouse brain membrane
  inhibitory effect on [35S]GTPγS binding compared with SR141716A: greatly exceeded that of SR141716A
CB1 receptor [2]; compound alone at 1 and 10 μM
  inhibition of [35S]GTPγS binding to the mouse brain membrane: significant inhibition

## CCCc1cc(O)c2c(c1)OC(C)(C)[C@@H]1CCC(C)=C[C@@H]21 [THCV, tetrahydrocannabidivarin]
hCB2 receptors; CHO-hCB2 cell membranes, at concentrations that antagonise cannabinoids
  effect by itself on the ability of [35S]GTPγS to bind: did not affect
CB1 receptor [2]; mouse brain membranes, at concentrations that antagonise cannabinoids
  effect by itself on the ability of [35S]GTPγS to bind: did not affect
Vas deferens
  effect by itself on the amplitude of the electrically-evoked contractions: did not affect

## CCCCCCC(C)(C)c1ccc([C@@H]2C[C@H](O)CC[C@H]2CCCO)c(O)c1 [[^3H]CP55940]
CB1 receptor [3]
  Kd: 2.31 nM

— patent publication US20100317729A1 (GW Pharma Limited, priority 2007, published 2010)
